# Where a SMILES comes first, the peptide text is derived from it. [ ]: non-standard residue; d: D form. Trp(5-Br) = N[C@@H](Cc1c[nH]c2ccc(Br)cc12)C(=O)O
# Organism: Homo sapiens
# Assay: Inhibitory activity against aggregation of deoxy-HbS using CSAT assay
# Assay type: functional
row,SMILES,Slope
1,N[C@@H](Cc1c[nH]c2ccc(Br)cc12)C(=O)O,356 g dl-1M-1
2,N[C@@H](Cc1c[nH]c2ccccc12)C(=O)O,124 g dl-1M-1
3,N[C@@H](Cc1c[nH]c2ccccc12)C(=O)N[C@@H](Cc1c[nH]c2ccccc12)C(=O)O (H-Trp-Trp-OH),235 g dl-1M-1
4,N[C@@H](Cc1c[nH]c2ccccc12)C(=O)N[C@@H](Cc1c[nH]c2ccc(Br)cc12)C(=O)O (H-Trp-[Trp(5-Br)]-OH),240 g dl-1M-1
5,N[C@@H](Cc1c[nH]c2ccc(Br)cc12)C(=O)N[C@@H](Cc1c[nH]c2ccccc12)C(=O)O (H-[Trp(5-Br)]-Trp-OH),334 g dl-1M-1
6,N[C@@H](Cc1c[nH]c2ccc(Br)cc12)C(=O)N[C@@H](Cc1c[nH]c2ccc(Br)cc12)C(=O)O (H-[Trp(5-Br)]-[Trp(5-Br)]-OH),726 g dl-1M-1
